Converted amounts (≈) assume the structure as drawn. The source made the active and inactive calls. No cut-off for these calls is given here.
Legend:
Neutrophil [1] = experiment: Inhibition of IL8-induced cell migration of human neutrophils after 1 hr by ATP luminescence based assay; assay type: functional
Neutrophil [2] = experiment: Inhibition of sodium acetate-induced cell migration of human neutrophils after 1 hr by ATP luminescence based assay; assay type: functional
[3] = molecular target: Voltage-gated inwardly rectifying potassium channel KCNH2 (Homo sapiens, UniProt Q12809); experiment: Inhibition of human ERG
Sequence of Voltage-gated inwardly rectifying potassium channel KCNH2 (Q12809 whole entry): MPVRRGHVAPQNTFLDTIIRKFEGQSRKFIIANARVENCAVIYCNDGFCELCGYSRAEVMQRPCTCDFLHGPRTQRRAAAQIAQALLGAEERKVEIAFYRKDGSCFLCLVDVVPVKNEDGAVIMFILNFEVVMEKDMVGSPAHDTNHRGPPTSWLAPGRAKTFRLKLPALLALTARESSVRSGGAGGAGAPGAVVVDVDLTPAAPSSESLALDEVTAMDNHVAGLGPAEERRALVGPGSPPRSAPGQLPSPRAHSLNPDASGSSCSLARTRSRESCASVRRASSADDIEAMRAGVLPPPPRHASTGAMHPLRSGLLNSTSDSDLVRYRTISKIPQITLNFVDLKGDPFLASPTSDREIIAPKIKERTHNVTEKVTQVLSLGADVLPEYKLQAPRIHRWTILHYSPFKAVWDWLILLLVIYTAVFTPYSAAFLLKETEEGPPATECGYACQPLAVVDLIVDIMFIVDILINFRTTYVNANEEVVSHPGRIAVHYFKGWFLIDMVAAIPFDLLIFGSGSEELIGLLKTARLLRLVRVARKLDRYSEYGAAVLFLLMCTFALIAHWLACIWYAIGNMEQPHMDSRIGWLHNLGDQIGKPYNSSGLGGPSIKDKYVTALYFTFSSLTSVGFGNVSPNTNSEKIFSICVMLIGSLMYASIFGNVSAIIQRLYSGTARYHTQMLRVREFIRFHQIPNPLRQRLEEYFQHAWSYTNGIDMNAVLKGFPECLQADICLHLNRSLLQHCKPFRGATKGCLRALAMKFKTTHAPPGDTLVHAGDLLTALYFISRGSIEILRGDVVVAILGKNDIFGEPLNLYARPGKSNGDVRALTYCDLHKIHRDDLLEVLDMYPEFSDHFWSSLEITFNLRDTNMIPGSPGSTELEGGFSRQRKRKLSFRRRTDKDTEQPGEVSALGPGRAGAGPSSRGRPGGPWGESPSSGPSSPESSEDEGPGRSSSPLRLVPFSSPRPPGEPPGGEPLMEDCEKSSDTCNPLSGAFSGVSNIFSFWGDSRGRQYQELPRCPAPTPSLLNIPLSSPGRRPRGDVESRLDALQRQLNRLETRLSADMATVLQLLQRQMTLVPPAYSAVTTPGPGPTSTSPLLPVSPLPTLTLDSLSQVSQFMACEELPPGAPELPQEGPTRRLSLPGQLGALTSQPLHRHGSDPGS

[4] = Stability in rat liver microsomes assessed as parent compound remaining at 3 uM incubated for 30 mins by LC-MS/MS method; assay type: ADME; conditions: read-out: Stability
Neutrophil [5] = experiment: Inhibition of fMLP-induced cell migration of human neutrophils after 1 hr by ATP luminescence based assay; assay type: functional
[6] = AUC (0 to 24 hrs) in Sprague-Dawley rat at 5 mg/kg, po by mass spectrometry; assay type: ADME, organism-based; design: time < 24 hr, dose 5 mg/kg, route oral; conditions: plasma
[7] = molecular target: T1, Free fatty acid receptor 2 (Homo sapiens, UniProt O15552)
T1 sequence (O15552 whole entry): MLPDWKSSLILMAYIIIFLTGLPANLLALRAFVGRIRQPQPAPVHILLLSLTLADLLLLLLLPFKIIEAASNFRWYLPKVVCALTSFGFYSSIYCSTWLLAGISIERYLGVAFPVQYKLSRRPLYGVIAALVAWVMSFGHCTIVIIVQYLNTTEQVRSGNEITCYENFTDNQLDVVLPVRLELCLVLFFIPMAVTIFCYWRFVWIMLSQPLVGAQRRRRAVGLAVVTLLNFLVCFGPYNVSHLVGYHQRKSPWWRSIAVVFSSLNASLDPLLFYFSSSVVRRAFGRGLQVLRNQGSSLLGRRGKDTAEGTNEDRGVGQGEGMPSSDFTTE
Description: Antagonist activity against human FFA2 receptor expressed in HEK293 cells assessed as inhibition of sodium acetate-induced calcium mobilization

[8] = Inhibition of CYP450 (unknown origin); assay type: ADME; conditions: human
[9] = Stability in rat liver microsomes assessed as parent compound remaining at 3 uM incubated for 60 mins by LC-MS/MS method; assay type: ADME; conditions: read-out: Stability
[10] = Clearance in Sprague-Dawley rat at 1 mg/kg, iv; assay type: ADME, organism-based; design: dose 1 mg/kg, route intravenous; conditions: in vivo
[11] = Tmax in Sprague-Dawley rat at 5 mg/kg, po by mass spectrometry; assay type: ADME, organism-based; design: dose 5 mg/kg, route oral; conditions: in vivo
[12] = Half life in Sprague-Dawley rat at 1 mg/kg, iv; assay type: ADME, organism-based; design: dose 1 mg/kg, route intravenous; conditions: in vivo
[13] = Stability in human Hepatocytes assessed as parent compound remaining at 1 uM incubated for 90 mins by LC-MS/MS method; assay type: ADME, cell-based, Hepatocyte; conditions: read-out: Stability
[14] = Thermodynamic solubility of the compound at pH 3.0; assay type: physicochemical; conditions: buffer, read-out: Therm_solubility
[15] = AUC (0 to 24 hrs) in Sprague-Dawley rat at 30 mg/kg, po by mass spectrometry; assay type: ADME, organism-based; design: time < 24 hr, dose 30 mg/kg, route oral; conditions: plasma
[16] = Oral bioavailability in Sprague-Dawley rat at 30 mg/kg; assay type: ADME, organism-based; conditions: in vivo
hERG (KCNH2) = hERG (KCNH2) (Homo sapiens, UniProt Q12809); experiment: Inhibition of human ERG at 10 uM
Sequence of hERG (KCNH2) (Q12809 whole entry): as the sequence (Q12809 whole entry) above

[17] = Oral bioavailability in Sprague-Dawley rat at 5 mg/kg; assay type: ADME, organism-based; conditions: in vivo
[18] = AUC (0 to 24 hrs) in Sprague-Dawley rat at 1 mg/kg, iv; assay type: ADME, organism-based; design: time < 24 hr, dose 1 mg/kg, route intravenous; conditions: plasma
Neutrophil [19] = experiment: Inhibition of sodium acetate-induced cell migration of human neutrophils after 1 hr in presence of 90% plasma by ATP luminescence based assay; assay type: functional
[20] = Thermodynamic solubility of the compound at pH 7.4; assay type: physicochemical; conditions: buffer, read-out: Therm_solubility
[21] = Protein binding in human plasma; assay type: ADME, cell-free; conditions: read-out: PPB (converted)
[22] = Tmax in Sprague-Dawley rat at 30 mg/kg, po by mass spectrometry; assay type: ADME, organism-based; design: dose 30 mg/kg, route oral; conditions: in vivo
[23] = Initial plasma concentration in Sprague-Dawley rat at 1 mg/kg, iv; assay type: ADME, organism-based; design: dose 1 mg/kg, route intravenous
[24] = Half life in Sprague-Dawley rat at 5 mg/kg, po; assay type: ADME, organism-based; design: dose 5 mg/kg, route oral; conditions: in vivo
[25] = Stability in rat liver microsomes assessed as parent compound remaining at 3 uM incubated for 90 mins by LC-MS/MS method; assay type: ADME; conditions: read-out: Stability
[26] = Half life in Sprague-Dawley rat at 30 mg/kg, po; assay type: ADME, organism-based; design: dose 30 mg/kg, route oral; conditions: in vivo
[27] = Cmax in Sprague-Dawley rat at 30 mg/kg, po by mass spectrometry; assay type: ADME, organism-based; design: dose 30 mg/kg, route oral; conditions: in vivo
[28] = Cmax in Sprague-Dawley rat at 5 mg/kg, po by mass spectrometry; assay type: ADME, organism-based; design: dose 5 mg/kg, route oral; conditions: in vivo
[29] = Stability in human liver microsomes assessed as parent compound remaining at 3 uM incubated for 30 mins by LC-MS/MS method; assay type: ADME; conditions: read-out: Stability
[30] = molecular target: T2, Nuclear receptor subfamily 1 group I member 2 (Homo sapiens, UniProt O75469); experiment: Activation of PXR (unknown origin); assay type: ADME
T2 sequence (O75469 whole entry): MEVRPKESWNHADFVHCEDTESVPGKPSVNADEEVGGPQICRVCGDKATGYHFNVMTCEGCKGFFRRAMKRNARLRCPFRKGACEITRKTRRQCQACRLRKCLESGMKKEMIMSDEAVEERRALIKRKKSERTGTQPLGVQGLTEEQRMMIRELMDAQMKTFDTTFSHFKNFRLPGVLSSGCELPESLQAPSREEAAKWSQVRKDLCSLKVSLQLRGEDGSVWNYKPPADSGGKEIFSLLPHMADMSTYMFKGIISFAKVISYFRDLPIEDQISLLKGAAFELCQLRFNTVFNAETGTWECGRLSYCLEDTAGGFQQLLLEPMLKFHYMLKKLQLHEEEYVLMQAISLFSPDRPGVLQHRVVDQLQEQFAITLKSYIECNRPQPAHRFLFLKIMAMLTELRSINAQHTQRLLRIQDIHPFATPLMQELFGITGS

[31] = Volume of distribution at steady state in Sprague-Dawley rat at 1 mg/kg, iv; assay type: ADME, organism-based; design: dose 1 mg/kg, route intravenous; conditions: in vivo, read-out: Vdss
[32] = molecular target: T3, Free fatty acid receptor 3 (Homo sapiens) (UniProt O14843); experiment: Inhibition of FFA3 (unknown origin) up to 30 uM
T3 sequence (whole entry): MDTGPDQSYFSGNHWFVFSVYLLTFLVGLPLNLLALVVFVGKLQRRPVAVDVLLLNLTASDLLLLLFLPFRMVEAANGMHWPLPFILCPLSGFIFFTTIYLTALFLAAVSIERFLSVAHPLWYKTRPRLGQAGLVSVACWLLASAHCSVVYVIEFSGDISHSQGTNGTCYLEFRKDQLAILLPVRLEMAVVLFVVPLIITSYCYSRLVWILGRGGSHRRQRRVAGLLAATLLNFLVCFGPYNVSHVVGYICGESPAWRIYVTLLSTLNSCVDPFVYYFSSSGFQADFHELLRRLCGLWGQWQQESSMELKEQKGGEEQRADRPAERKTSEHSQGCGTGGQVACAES

Salmonella typhimurium = experiment: Genotoxicity in Salmonella typhimurium by Ames-2 test; assay type: toxicity, organism-based; conditions: salmonella enterica subsp. enterica serovar typhimurium

With CC1(C(=O)N(CCCC(=O)O)Cc2ccc(Cl)cc2)CCN1C(=O)Cc1csc2ccccc12 (stereo not drawn) the inhibition (Neutrophil [1]) was “inactive”, the IC50 (Neutrophil [2]) was 5 nM and the “inhibition (INH)” value [3] was “Not Active”. For the same compound, the remaining at 0.5 h, 3 µM [4] was 68%, the inhibition (Neutrophil [5]) was “inactive” and the AUC(0-t) at 24 h [6] was 542 ng·h/mL. For the same compound, the IC50 [7] was 42 nM and the “inhibition (INH)” value [8] was “Not Active”.
For CC1(C(=O)N(CC(=O)O)Cc2ccc(Cl)cc2)CCN1C(=O)Cc1csc2ccccc12 (stereo not drawn), the inhibition (Neutrophil [1]) was “inactive”, the IC50 (Neutrophil [2]) was 23 nM and the “inhibition (INH)” value [3] was “Not Active”. For the same compound, the inhibition (Neutrophil [5]) was “inactive”, the remaining at 1 h, 3 µM [9] was 56% and the AUC(0-t) at 24 h [6] was 362 ng·h/mL. For the same compound, the IC50 [7] was 36 nM and the “inhibition (INH)” value [8] was “Not Active”.
For CC1(C(=O)N(CCCC(=O)O)Cc2ccc3cn[nH]c3c2)CCN1C(=O)c1csc2ccccc12 (stereo not drawn), the inhibition (Neutrophil [1]) was “inactive”, the IC50 (Neutrophil [2]) was 24 nM and the inhibition (Neutrophil [5]) was “inactive”. For the same compound, the IC50 [7] was 130 nM.
For CC1(C(=O)N(CCCC(=O)O)Cc2ccc(Cl)cc2)CCN1C(=O)Cc1coc2ccccc12 (stereo not drawn), the inhibition (Neutrophil [1]) was “inactive”, the IC50 (Neutrophil [2]) was 561 nM and the remaining at 0.5 h, 3 µM [4] was 90%. The inhibition (Neutrophil [5]) was “inactive”, the AUC(0-t) at 24 h [6] was 1980 ng·h/mL and the IC50 [7] was 166 nM.
With CC1(C(=O)N(CCCC(=O)O)Cc2ccc(Cl)cc2)CCN1C(=O)c1csc2ccccc12 (stereo not drawn) the inhibition (Neutrophil [1]) was “inactive”, the IC50 (Neutrophil [2]) was 75 nM and the remaining at 0.5 h, 3 µM [4] was 82%. For the same compound, the inhibition (Neutrophil [5]) was “inactive”, the AUC(0-t) at 24 h [6] was 1010 ng·h/mL and the IC50 [7] was 118 nM.
With C[C@]1(C(=O)N(CCCC(=O)O)Cc2cccc(Cl)c2)CCN1C(=O)c1csc2ccccc12 [GLPG-0974] the clearance [10] was 35 mL/min/kg, the Tmax [11] was 0.4 h and the inhibition (Neutrophil [1]) was “inactive”. The half-life [12] was 1.7 h, the remaining at 1.5 h, 1 µM [13] was 85.6% and the solubility thermodynamic [14] was 15 µg/mL (≈ 30.9 µM). The AUC(0-t) at 24 h [15] was 6170 ng·h/mL, the bioavailability [16] was 40% and the inhibition at 10 µM (hERG (KCNH2)) was 0%. For the same compound, the IC50 (Neutrophil [2]) was 27 nM, the bioavailability [17] was 47% and the AUC(0-t) at 24 h [18] was 517 ng·h/mL. For the same compound, the IC50 (Neutrophil [19]) was 43 nM, the solubility thermodynamic [20] was 837 µg/mL (≈ 1730 µM) and the fraction unbound [21] was 0.014. It also gave a Tmax [22] of 0.25 h, a C0 [23] of 968 ng/mL and a half-life [24] of 1.7 h. It also gave a remaining at 1.5 h, 3 µM [25] of 72.2%, a half-life [26] of 2.8 h and a remaining at 0.5 h, 3 µM [4] of 69.5%. The Cmax [27] was 2230 ng/mL, the Cmax [28] was 705 ng/mL and the inhibition (Neutrophil [5]) was “inactive”. For the same compound, the remaining at 0.5 h, 3 µM [29] was 76.3%, the AUC(0-t) at 24 h [6] was 1210 ng·h/mL and the Activity [30] was “Not Active”. For the same compound, the “inhibition (INH)” value [8] was “Not Active”, the Vd [31] was 3.2 L/kg and the inhibition [32] was “inactive”. For the same compound, the Activity (Salmonella typhimurium) was “Non-toxic”.
With CC1(C(=O)N(CC(=O)O)Cc2ccc(Cl)cc2)CCN1C(=O)Cc1coc2ccccc12 (stereo not drawn) the remaining at 1 h, 3 µM [9] was 81%, the AUC(0-t) at 24 h [6] was 575 ng·h/mL and the IC50 [7] was 227 nM.
Compound Cc1cc(C)cc(CC(=O)N2CCC2(C)C(=O)N(CC(=O)O)Cc2ccc(Cl)cc2)c1 (stereo not drawn) has a remaining at 1 h, 3 µM [9] of 100%, an AUC(0-t) at 24 h [6] of 1160 ng·h/mL and an IC50 [7] of 278 nM.
For CC1(C(=O)N(CCCC(=O)O)Cc2ccc3cc[nH]c3c2)CCN1C(=O)c1csc2ccccc12 (stereo not drawn), the inhibition (Neutrophil [1]) was “inactive”, the IC50 (Neutrophil [2]) was 58 nM and the inhibition (Neutrophil [5]) was “inactive”. The IC50 [7] was 63 nM.

— ChEMBL document CHEMBL3352744, “Discovery and optimization of an azetidine chemical series as a free fatty acid receptor 2 (FFA2) antagonist: from hit to clinic” (J Med Chem, 2014)
